This note sets out measurements from patent US8658226B2, “Agent having anti-Helicobacter pylori activity” (Japan Royal Jelly Co., Ltd., priority 2008, dated 2014).

≈ marks a conversion by molar mass, not a printed value.

The test system of the test is Helicobacter pylori. Briefly: Measurement of anti-Helicobacter pylori activity by the paper disk method. Format: cell-based. Here is the method:
Measurement of anti-Helicobacter pylori activity was carried out by the paper disk method using Helicobacter pylori agar culture medium (Pore […] Chemical). After coating Helicobacter pylori over the entire surface of this medium, a thick circular piece of filter paper (Advantec) having a diameter of 8 mm impermeated with 60 μl of extract was placed on the medium followed by culturing in the presence of 10% carbon dioxide gas. After culturing for 3 to 4 days, the size of the zone of inhibition of Helicobacter pylori growth formed around the filter paper was observed. A piece of filter paper impermeated with chloramphenicol (CM, 100 μg/ml) was also placed on the medium as a positive control, while a piece of filter paper impermeated with PBS was placed on the medium as a negative control.

As to `O=C(N[C@H](CO)[C@H](O)c1ccc([N+](=O)[O-])cc1)C(Cl)Cl` [chloramphenicol], where the note is “Helicobacter pylori, assumed from paper disk method, read-out: minimum inhibitory concentration (MIC)”, the MIC is approximately 5 µg/mL (≈ 15.5 µM). The “antibacterial activity of chloramphenicol” value (at a concentration of 5 μg/ml) was “essentially no longer observed”.
